Tests used:
[1] = molecular target: T1, purified recombinant human GAC (GLS1) (Homo sapiens, UniProt O94925); assay: GLS1 Enzymatic Activity Assay (dual-coupled enzymatic assay); assay type: biochemical
T1 sequence (O94925 55-598 isoform O94925-3 limits assumed): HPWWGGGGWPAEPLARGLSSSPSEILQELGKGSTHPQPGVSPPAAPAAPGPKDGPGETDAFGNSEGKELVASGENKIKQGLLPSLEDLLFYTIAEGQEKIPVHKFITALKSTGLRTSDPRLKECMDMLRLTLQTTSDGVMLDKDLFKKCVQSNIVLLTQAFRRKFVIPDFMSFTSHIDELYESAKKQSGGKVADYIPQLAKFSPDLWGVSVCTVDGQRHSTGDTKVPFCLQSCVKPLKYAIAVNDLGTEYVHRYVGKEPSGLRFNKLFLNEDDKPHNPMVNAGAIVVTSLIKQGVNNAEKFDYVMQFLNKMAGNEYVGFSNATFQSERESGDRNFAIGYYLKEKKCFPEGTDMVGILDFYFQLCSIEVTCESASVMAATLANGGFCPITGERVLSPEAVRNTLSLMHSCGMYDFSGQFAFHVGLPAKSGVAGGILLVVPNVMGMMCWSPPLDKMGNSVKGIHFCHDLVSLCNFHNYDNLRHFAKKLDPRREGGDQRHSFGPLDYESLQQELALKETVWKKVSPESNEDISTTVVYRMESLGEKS
Experimental: GLS1 Enzymatic Activity Assay
The inhibition of purified recombinant human GAC by varying concentrations of inhibitors is assessed via a dual-coupled enzymatic assay. The glutamate produced by the glutaminase reaction is used by glutamate oxidase to produce α-ketoglutarate, ammonia, and hydrogen peroxide, with this hydrogen peroxide subsequently being used by horseradish peroxidase to produce resorufin in the presence of Amplex UltraRed. The assay buffer consisted of 50 mM Hepes (pH 7.4), 0.25 mM EDTA and 0.1 mM Triton X-100. GAC was incubated with potassium phosphate (10 minutes at room temperature) prior to incubation with inhibitor (10 minutes at room temperature). The final reaction conditions were as follows: 2 nM GAC, 50 mM potassium phosphate, 100 mU/mL glutamate oxidase (Sigma), 1 mM glutamine (Sigma), 100 mU/mL horseradish peroxidase (Sigma), 75 μM Amplex UltraRed (Life Technologies), and 1% (v/v) DMSO. The production of resorufin was monitored on a Perkin Elmer Envision plate reader (excitation 530 nm, emission 590 nm) either in a kinetics or endpoint mode (at 20 minutes). IC50 values were calculated using a four-parameter logistic curve fit.

A549 cells = assay: Proliferation Assay (A549 cell viability, Cell Titer Fluor); assay type: cell-based; details: Homo sapiens, 72 hours
Experimental: A549 cells were routinely maintained in RPMI 1640 media (Gibco catalog number 11875-093) supplemented with 10% dialyzed fetal bovine serum using a humidified incubator (37° C., 5% CO2 and ambient O2). In preparation for the viability assay, cells were inoculated into 384-well black CulturPlates (Perkin Elmer) at a density of 1000 cells/well in a volume of 40 uL. Following a 24-hour incubation at 37° C., 5% CO2 and ambient O2, cells were treated with compound (10 uL) in a final DMSO concentration of 0.5% (v/v). The microplates were then incubated for 72 hours (37° C., 5% CO2 and ambient O2). Cell Titer Fluor (Promega) was subsequently added (10 uL of 6× reagent) and mixed for 15 minutes at room temperature. The plates were then incubated for 30 minutes (37° C., 5% CO2 and ambient O2) and fluorescence was subsequently read on the Perkin Elmer Envision plate reader. EC50 values were calculated using a four-parameter logistic curve fit.

For O=C(Cc1ccccc1)Nc1ccn(CCCCc2cc3cc(Cc4ccccc4)[nH]c3nn2)c(=O)c1 [Example 9, N-(1-(4-(6-Benzyl-7H-pyrrolo[2,3-c]pyridazin-3-yl)butyl)-2-oxo-1,2-dihydropyridin-4-yl)-2-phenylacetamide], the IC50 [1] was < 100 nM and the EC50 (A549 cells) was 500 to 5000 nM.

For O=C(NCc1cccc(OC(F)(F)F)c1)c1cn(CCCCc2cc3cc(C4CC4)[nH]c3nn2)nn1 [Example 32, 1-(4-{6-cyclopropyl-7H-pyrrolo[2,3-c]pyridazin-3-yl}butyl)-N-{[3-(trifluoromethoxy)phenyl]methyl}-1H-1,2,3-triazole-4-carboxamide], the IC50 [1] was < 100 nM and the EC50 (A549 cells) was 100 to 500 nM.

For Cc1ccc(CNC(=O)c2cn(CCCCc3cc4c(-c5cccc(C(C)(C)O)c5)c(C5CC5)[nH]c4nn3)nn2)cn1 [Example 160, 1-(4-{6-cyclopropyl-5-[3-(2-hydroxypropan-2-yl)phenyl]-7H-pyrrolo[2,3-c]pyridazin-3-yl}butyl)-N-[(6-mcthylpyridin-3-yl)methyl]-1H-1,2,3-triazole-4-carboxamide], the IC50 [1] was < 100 nM and the EC50 (A549 cells) was 100 to 500 nM.

With O=C(Nc1nnc(CCCCc2cc3cc(C4CC4)[nH]c3nn2)s1)[C@@H](O)c1ccccc1 [Example 8, (S)—N-(5-(4-(6-Cyclopropyl-7H-pyrrolo[2,3-c]pyridazin-3-yl)butyl)-1,3,4-thiadiazol-2-yl)-2-hydroxy-2-phenylacetamide] the IC50 [1] was < 100 nM and the EC50 (A549 cells) was 500 to 5000 nM.

CCOC(=O)c1cccc(CNC(=O)c2cn(CCCCc3cc4cc(C5CC5)[nH]c4nn3)nn2)n1 [Example 88, ethyl 6-({[1-(4-{6-cyclopropyl-7H-pyrrolo[2,3-c]pyridazin-3-yl}butyl)-1H-1,2,3-triazol-4-yl]formamido}methyl)pyridine-2-carboxylate] was tested, and the IC50 [1] was < 100 nM and the EC50 (A549 cells) was 500 to 5000 nM.

In the case of CC(C)(C)OC(=O)NCc1cccc(CNC(=O)c2cn(CCCCc3cc4cc(C5CC5)[nH]c4nn3)nn2)c1 [Example 93, tert-butyl N-{[3-({[1-(4-{6-cyclopropyl-7H-pyrrolo[2,3-c]pyridazin-3-yl}butyl)-1H-1,2,3-triazol-4-yl]formamido}methyl)phenyl]methyl}carbamate], the IC50 [1] is reported as < 100 nM and the EC50 (A549 cells) is reported as < 100 nM.

Cc1ccc(CNC(=O)c2cn(CCCCc3cc4c(F)c(C5CC5)[nH]c4nn3)nn2)cn1 [Example 90, 1-(4-(6-cyclopropyl-5-fluoro-7H-pyrrolo[2,3-c]pyridazin-3-yl)butyl)-N-((6-methylpyridin-3-yl)methyl)-1H-1,2,3-triazole-4-carboxamide 2,2,2-trifluoroacetate] was tested, and the IC50 [1] was < 100 nM and the EC50 (A549 cells) was 500 to 5000 nM.

For O=C(NCc1cc(OC(F)(F)F)ccc1F)c1cn(CCCCc2cc3cc(-c4ccccc4F)[nH]c3nn2)nn1 [Example 205, N-{[2-fluoro-5-(trifluoromethoxy)phenyl]methyl}-1-(4-[6-(2-fluorophenyl)-7H-pyrrolo[2,3-c]pyridazin-3-yl]butyl)-1H-1,2,3-triazole-4-carboxamide], the IC50 [1] was < 100 nM and the EC50 (A549 cells) was 100 to 500 nM.

In the case of CC(C)(C)OC(=O)NCc1cccc(CC(=O)Nc2nnc(CCCCc3cc4cc(Cc5ccccc5)[nH]c4nn3)s2)c1 [Example 59, tert-butyl N-{[3-({[5-(4-{6-benzyl-7H-pyrrolo[2,3-c]pyridazin-3-yl}butyl)-1,3,4-thiadiazol-2-yl]carbamoyl}methyl)phenyl]methyl}carbamate], the IC50 [1] is reported as < 100 nM and the EC50 (A549 cells) is reported as < 100 nM.

For CS(=O)(=O)N1CC(c2cc3cc(CCCCn4cc(C(=O)NCc5cc(OC(F)(F)F)ccc5F)nn4)nnc3[nH]2)C1 [Example 130, N-{[2-fluoro-5-(trifluoromethoxy)phenyl]methyl}-1-{4-[6-(1-methanesulfonylazetidin-3-yl)-7H-pyrrolo[2,3-c]pyridazin-3-yl]butyl}-1H-1,2,3-triazole-4-carboxamide], the IC50 [1] was < 100 nM and the EC50 (A549 cells) was 100 to 500 nM.

CC(=O)Nc1ccc(-c2c(C3CC3)[nH]c3nnc(CCCCn4cc(C(=O)NCc5ccc(C)nc5)nn4)cc23)cc1 [Example 179, 1-{4-[6-cyclopropyl-5-(4-acetamidophenyl)-7H-pyrrolo[2,3-c]pyridazin-3-yl]butyl}-N-[(6-methylpyridin-3-yl)methyl]-1H-1,2,3-triazole-4-carboxamide] was tested, and the IC50 [1] was < 100 nM and the EC50 (A549 cells) was 500 to 5000 nM.

With Cc1ccc(CNC(=O)c2cn(CCCCc3cc4cc(C5CCNCC5)[nH]c4nn3)nn2)cn1 [Example 98, N-[(6-methylpyridin-3-yl)methyl]-1-{4-[6-(piperidin-4-yl)-7H-pyrrolo[2,3-c]pyridazin-3-yl]butyl}-1H-1,2,3-triazole-4-carboxamide] the IC50 [1] was 500 to 5000 nM and the EC50 (A549 cells) was > 5000 nM.

O=C(NCc1ccncc1)c1nnc(CCCCc2cc3cc(Cc4ccccc4)[nH]c3nn2)s1 [Example 75, 5-(4-{6-benzyl-7H-pyrrolo[2,3-c]pyridazin-3-yl}butyl)-N-(pyridin-4-ylmethyl)-1,3,4-thiadiazole-2-carboxamide] was tested, and the IC50 [1] was 100 to 500 nM and the EC50 (A549 cells) was 500 to 5000 nM.

O=C(NCc1ccccn1)c1cn(CCCCc2cc3c(Cc4ccc(Cl)nc4)c(C4CC4)[nH]c3nn2)nn1 [Example 114, 1-(4-(5-((6-chloropyridin-3-yl)methyl)-6-cyclopropyl-7H-pyrrolo[2,3-c]pyridazin-3-yl)butyl)-N-(pyridin-2-ylmethyl)-1H-1,2,3-triazole-4-carboxamide 2,2,2-trifluoroacetate] was tested, and the IC50 [1] was < 100 nM and the EC50 (A549 cells) was 500 to 5000 nM.

With O=C(NCc1ccccn1)c1cn(CCCCc2cc3c(-c4ccc(F)cc4)c(C4CC4)[nH]c3nn2)nn1 [Example 125, 1-{4-[6-cyclopropyl-5-(4-fluorophenyl)-7H-pyrrolo[2,3-c]pyridazin-3-yl]butyl}-N-(pyridin-2-ylmethyl)-1H-1,2,3-triazole-4-carboxamide] the IC50 [1] was < 100 nM and the EC50 (A549 cells) was 100 to 500 nM.

In the case of CS(=O)(=O)Nc1cccc(-c2c(C3CC3)[nH]c3nnc(CCCCn4cc(C(=O)NCc5ccccn5)nn4)cc23)c1 [Example 137, 1-{4-[6-cyclopropyl-5-(3-methanesulfonamidophenyl)-7H-pyrrolo[2,3-c]pyridazin-3-yl]butyl}-N-(pyridin-2-ylmethyl)-1H-1,2,3-triazole-4-carboxamide], the IC50 [1] is reported as < 100 nM and the EC50 (A549 cells) is reported as 500 to 5000 nM.

For Cc1ccc(CNC(=O)c2cn(CCCCc3cc4c(-c5ccc(OC(F)(F)F)cc5)c(C5CC5)[nH]c4nn3)nn2)cn1 [Example 165, 1-(4-{6-cyclopropyl-5-[4-(trifluoromethoxy)phenyl]-7H-pyrrolo[2,3-c]pyridazin-3-yl}butyl)-N-[(6-methylpyridin-3-yl)methyl]-1H-1,2,3-triazole-4-carboxamide], the IC50 [1] was < 100 nM and the EC50 (A549 cells) was 100 to 500 nM.

COc1cccc(CNC(=O)c2cn(CCCCc3cc4cc(C5CC5)[nH]c4nn3)nn2)n1 [Example 33, 1-(4-{6-cyclopropyl-7H-pyrrolo[2,3-c]pyridazin-3-yl}butyl)-N-[(6-methoxypyridin-2-yl)methyl]-1H-1,2,3-triazole-4-carboxamide] was tested, and the IC50 [1] was 100 to 500 nM and the EC50 (A549 cells) was 500 to 5000 nM.

Compound Cc1cccc(CNC(=O)c2cn(CCCCc3cc4cc(C5CC5)[nH]c4nn3)nn2)n1 [Example 55, 1-(4-{6-cyclopropyl-7H-pyrrolo[2,3-c]pyridazin-3-yl}butyl)-N-[(6-methylpyridin-2-yl)methyl]-1H-1,2,3-triazole-4-carboxamide] has an IC50 [1] of 100 to 500 nM and an EC50 (A549 cells) of 500 to 5000 nM.

In the case of CC(C)(C(=O)N1CC(c2cc3cc(CCCCn4cc(C(=O)NCc5cc(OC(F)(F)F)ccc5F)nn4)nnc3[nH]2)C1)C(F)(F)F [Example 229, N-(2-fluoro-5-(trifluoromethoxy)benzyl)-1-(4-(6-(1-(3,3,3-trifluoro-2,2-dimethylpropanoyl)azetidin-3-yl)-7H-pyrrolo[2,3-c]pyridazin-3-yl)butyl)-1H-1,2,3-triazole-4-carboxamide], the IC50 [1] is reported as < 100 nM and the EC50 (A549 cells) is reported as < 100 nM.
